Assay [1] concerns the target T1, His-tagged recombinant human PPARβ/δ ligand binding domain (Homo sapiens, UniProt Q03181).
T1 construct: made in house; host or cells: E. coli (DE3, Rosetta)
T1 sequence (Q03181 211-439 limits assumed): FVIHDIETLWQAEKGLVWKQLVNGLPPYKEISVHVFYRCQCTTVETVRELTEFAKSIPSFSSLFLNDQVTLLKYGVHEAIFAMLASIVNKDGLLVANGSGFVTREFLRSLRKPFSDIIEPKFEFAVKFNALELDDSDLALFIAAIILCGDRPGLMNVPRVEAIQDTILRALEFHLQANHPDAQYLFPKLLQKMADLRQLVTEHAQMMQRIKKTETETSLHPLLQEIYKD
Description: CNBr-bead conjugation (pull-down) assay, hPPARβ/δ-LBD. The conditions noted are these: CNBr-coupled drug, positive control GW501516, FIG. 2. On the procedure:
A compound of the present invention represented by Chemical Formula 1 was synthesized by DAEJUNG Chemicals & Metals (Gyeonggi-do, Korea) (indicated as ‘D6’ in the drawing). WY14643, GW501516, and rosiglitazone were purchased from Sigma-Aldrich (St. Louis, MO, USA). The compounds were dissolved in dimethyl sulfoxide (DMSO), diluted in a culture solution, and used in the experiment. Cyanogen bromide (CNBr)-activated Sepharose 4B was purchased from Sigma-Aldrich (St. Louis, MO, USA). His-tagged recombinant human PPAR-ligand binding domain (LBD) was expressed in E. coli (DE3, Rosetta) and then purified and used. A His antibody was purchased from Cell Signaling Technology (Danvers, Massachusetts, USA). 3-Isobutyl-1-methylxanthine (IBMX), dexamethasone, bovine pancreatic insulin, and Oil Red O were purchased from Sigma-Aldrich (St. Louis, MO, USA). A PRO-PREP™ Protein Extraction Solution was purchased from iNtRON Biotechnology (iNtRON Biotech., Korea). […]
100 mg of CNBr-activated Sepharose 4B was added to an e-tube, and then the beads were activated by rotating with 1 ml of 1 mM HCl for 10 minutes at room temperature. […] Each e-tube was added with the drug and rotated overnight at 4° C., at which time the concentration was measured to be 20 μM. […] The supernatant was completely removed, and the pellet was detected by Western blotting. […]

Assay [2] relates to high-fat diet mice. As to the kind of experiment: High-fat diet mice: body weight and food intake. It is filed as in vivo, C57BL/6J mice. The conditions noted are these: 5 mg/kg/day oral, 13 weeks, 60% HFD, vs HFD-V, FIG. 6. On the procedure:
(§1) The care and use of experimental animals were carried out with the approval of the Institutional Animal Care and Use Committee of Pohang University of Science and Technology. C57BL/6J mice were purchased from Japan SLC, Inc. 50 four-week-old male C57/BL/6J mice were acclimated for 2 weeks. The mice were randomly divided and orally administered with vehicle or 5 mg/kg/day of D6 or WY14643 for 13 weeks (oral gavage), and obesity was induced by a 60% high-fat diet (#D12492, Research diets, NJ, USA). Body weights and food intakes were measured weekly from 6 weeks of age, and after 16 weeks of age, adipose tissue and muscle volumes were measured using a Trimodality imaging system.
(§2) To confirm a metabolic disease inhibitory effect of the compound represented by Chemical Formula 1 through animal experiments, mice were acclimated for 2 weeks, and then obesity was induced by feeding a 60% high fat diet (HFD) and orally administered with vehicle or 5 mg/kg/day of the compound represented by Chemical Formula 1 (D6) or WY14643 for 13 weeks. Experiments such as IP-GTT, IP-ITT, and micro-CT were performed at the week 10 of drug administration (FIG. 5).

Assay [3] has as its system high-fat diet mice. Description: Serum analysis of high-fat diet mice. In kind it is in vivo, C57BL/6J mice. The conditions noted are these: 5 mg/kg/day oral, 60% HFD. On the procedure:
as §1
Mouse blood was obtained by cardiac puncture and incubated at room temperature for 30 minutes. Next, the blood sample was centrifuged at 3,000 rpm for 30 minutes at 4° C., and then the supernatant was collected and analyzed.
as §2

The subject of assay [4] is high-fat diet mice. As to the kind of experiment: High-fat diet mice: micro-CT adipose tissue volume. It is filed as in vivo, C57BL/6J mice. The conditions noted are these: 5 mg/kg/day oral, 60% HFD, vs control group, FIGS. 7 and 8. On the procedure: as §1, §2
In assay [5] the test system is high-fat diet mice. As to the kind of experiment: Histology of adipose tissues of high-fat diet mice (H&E). It is filed as in vivo, C57BL/6J mice. The conditions noted are these: 5 mg/kg/day oral, 60% HFD. On the procedure:
as §1
Mouse tissues were fixed with 10% formalin solution (Sigma-Aldrich, St. Louis, MO, USA), and paraffin-embedded tissues were segmented and stained with hematoxylin and eosin (H&E) staining and Sirius Red staining (IHC world, Woodstock, USA).
To observe the effects of the compound represented by Chemical Formula 1 on metabolic diseases, biopsy was performed on adipose tissues of high-fat diet mice.

The subject of assay [6] is high-fat diet mice. Description: High-fat diet mice: organ weights. The conditions noted are these: 5 mg/kg/day oral, 60% HFD, vs HFD-V, FIG. 9. It is filed as in vivo, C57BL/6J mice. On the procedure:
as §1, §2

For `COc1ccc(-c2cc(=O)oc3c(C)c(OC(=O)[C@H](Cc4c[nH]c5ccccc45)NC(=O)OC(C)(C)C)ccc23)cc1` [Chemical Formula 1, [4-(4-methoxyphenyl)-8-methyl-2-oxochromen-7-yl] (2S)-3-(1H-indol-3-yl)-2-[(2-methylpropan-2-yl)oxycarbonylamino]propanoate], the “conjugation (binding) to hPPARβ/δ-LBD, Western blotting” value in assay [1] is reported as “as much potently as a PPAR agonist used as a positive control”. Also, in the assay on high-fat diet mice [2], the food intake entry is recorded as “no significant change” and the “rate of weight gain” value is recorded as “significantly reduced”. For the same compound, in the assay on high-fat diet mice [3] (FIG. 12), the “blood sugar (serum glucose)” value is reported as “significantly reduced”. Besides, the “blood lipids (LDLC)” value in the assay with high-fat diet mice [3] (FIG. 13) is recorded as “significantly reduced”. In addition, the “volume of adipose tissue (micro-CT)” value in the assay with high-fat diet mice [4] is “significantly reduced”. For the same compound, the “adipocyte sizes in adipose tissue (H&E staining)” value with high-fat diet mice [5] (FIG. 14) is reported as “reduced”. In the assay on high-fat diet mice [5] (FIG. 15), the “adipocyte size distribution, brown adipose tissue (BAT)” value was “reducing adipocyte sizes”; the “adipocyte size distribution, epididymal white adipose tissue (eWAT)” value is “reducing adipocyte sizes”; the “adipocyte size distribution, inguinal WAT (iWAT)” value is given as “reducing adipocyte sizes”. Also, in the assay on high-fat diet mice [6], the “epididymal white adipose tissue (eWAT) weight” value was “reduced” and the liver weight entry was “reduced”.

The values above are taken from US20260027083A1, “USE OF PPAR AGONIST FOR IMPROVEMENT OF ENERGY METABOLISM” (NOVMETAPHARMA CO., LTD., priority 2022, published 2026).
